Values of other authors, collected in paper PMC9825171 (Nucleic Acids Research, 2022).

Tested on: interactions of both NICD and SHARP with RBPJ
Conditions: cellular assays; ref [63]

Structure (SMILES): Cn1nccc1-c1ccc(C(N)=O)c(Oc2ccccc2F)c1 [RIN1]
- effect on RBPJ-coregulator interactions, in words: block the interactions of both NICD and SHARP with RBPJ
